The series is described as follows: Aqueous kinetic solubility measurement. It is filed as physicochemical. The protocol:
Compounds were evaluated for their kinetic solubility in buffer or water. Aliquots of 8 μL of reference and test compound stock solutions (10 mM in DMSO) were added into 792 μL of 100 mM phosphate buffer (0.1 M NaPO4, pH 7.4). Final DMSO concentration is 1%. The sample tubes were shaken for 1 hour (1000 rpm) at room temperature. A calibration curve was prepared using 300 μM spiking solution (SS) in MeOH/ACN(4:1) (SS=add 6 μL 10 mM compound in 194 μL MeOH/ACN(4:1)). Samples were centrifuged for 10 min (12000 rpm) to precipitate undissolved particles, and the supernatants were transferred to a new tube or plate. Supernatants were diluted 10 times and 100 times with 100 mM buffer. Samples were then prepared for analysis by LC-MS/MS (Add 5 μL of compound samples (not diluted, 10 times diluted and 100 times diluted) and standard curve samples to 95 μL of ACN containing internal standard. Internal standards used are Propranolol, Ketoconazole, and Tamoxifen.

The structures appear in SMILES notation. Values after ≈ are worked out from the molar mass of the structure shown.

Usually solubility stands for the concentration that dissolves in the medium under given conditions.

`COCc1cc2c(cn1)CN(C(=O)Nc1nc(-c3ccc(F)cc3F)ccc1N)C2` [Compound 1]: the “solubility (in words)” value is “slightly reduced”. The molecule further displayed a solubility at 1 h (aqueous buffer, kinetic from dmso stock, kinetic, 100 mM phosphate buffer pH 7.4, 1% DMSO) of 27 µM (≈ 11.1 µg/mL).
